Measurements from US20260008768A1, “UREA DERIVATIVES FOR INHIBITING NLRP3 AND USES THEREOF” (VENTUS THERAPEUTICS U.S., INC., priority 2023, published 2026).

Legend:
[1] = molecular target: T1, human NLRP3 (Homo sapiens, UniProt Q96P20); assay: Human PBMC NLRP3 Assay (LPS priming, ATP stimulation, cytokine measurement); assay type: cell-based; design: host or cells: human PBMCs (A2); human whole blood from healthy volunteers (A3); conditions: for IC50: human PBMC, LPS + ATP
Outline: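 Human PBMCs (5×10^4/well) primed with 100 ng/ml LPS for 4 h, then given compound for 30 min and stimulated with 5 mM ATP for 1 h at 37° C. Supernatant cytokines measured on the Mesoscale platform to give IC50. For TNFα selectivity, compound was added 30 min before LPS priming.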

[2] = molecular target: T1, human NLRP3; assay: Scintillation Proximity (SPA) NLRP3 Assay, displacement of 3H-MCC950; assay type: binding; conditions: for IC50: displacement of 3H-MCC950 from human NLRP3
Outline: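 Human NLRP3 (350 nM) preincubated 15 min at RT with compound (5% DMSO final) in HEPES pH 7.5 buffer with 100 μM ADP, then 125 nM 3H-MCC950 added for 60 min. Copper PVT SPA beads added; counts read 6 h later. Specific binding = signal minus no-protein wells, duplicates averaged; IC50 reported.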

[3] = relative to Comparative Example B1

T1 sequence (Q96P20 whole entry): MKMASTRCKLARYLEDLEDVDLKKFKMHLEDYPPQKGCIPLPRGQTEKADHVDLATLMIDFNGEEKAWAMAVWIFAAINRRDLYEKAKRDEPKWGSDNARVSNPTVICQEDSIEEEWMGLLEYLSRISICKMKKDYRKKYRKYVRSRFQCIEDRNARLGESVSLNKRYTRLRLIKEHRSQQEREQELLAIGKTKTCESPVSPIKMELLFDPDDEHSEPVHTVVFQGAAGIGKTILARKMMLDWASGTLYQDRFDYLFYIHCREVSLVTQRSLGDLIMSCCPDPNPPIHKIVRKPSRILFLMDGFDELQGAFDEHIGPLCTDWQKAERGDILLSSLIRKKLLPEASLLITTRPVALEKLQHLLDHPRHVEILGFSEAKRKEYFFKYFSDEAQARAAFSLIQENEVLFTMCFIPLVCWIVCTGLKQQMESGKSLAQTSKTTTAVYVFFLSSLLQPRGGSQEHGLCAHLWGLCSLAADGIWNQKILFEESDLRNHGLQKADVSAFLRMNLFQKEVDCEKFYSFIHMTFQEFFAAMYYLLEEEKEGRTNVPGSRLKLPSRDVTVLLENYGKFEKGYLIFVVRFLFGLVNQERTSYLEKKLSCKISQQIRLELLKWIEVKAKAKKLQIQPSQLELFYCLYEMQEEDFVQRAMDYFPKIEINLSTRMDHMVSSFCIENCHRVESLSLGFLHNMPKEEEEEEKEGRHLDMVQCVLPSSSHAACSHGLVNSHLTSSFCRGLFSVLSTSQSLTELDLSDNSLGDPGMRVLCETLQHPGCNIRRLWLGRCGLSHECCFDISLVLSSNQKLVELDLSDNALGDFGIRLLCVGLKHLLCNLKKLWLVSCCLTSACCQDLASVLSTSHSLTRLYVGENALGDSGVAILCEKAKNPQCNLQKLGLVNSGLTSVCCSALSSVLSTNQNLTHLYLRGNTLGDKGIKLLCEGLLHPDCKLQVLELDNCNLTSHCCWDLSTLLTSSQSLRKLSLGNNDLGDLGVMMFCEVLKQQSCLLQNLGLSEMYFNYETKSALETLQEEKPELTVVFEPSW

| IC50 ([1]; Table B, activity class) [nM] | IC50 ([1]; Table C) [nM] | fold improvement in potency (PBMC IC50) [1, 3] [fold] | IC50 ([2]; Table B, activity class) [nM] | IC50 ([2]; Table C) [nM] | fold improvement in binding activity (SPA IC50) [2, 3] [fold] | fold increase in binding activity (SPA IC50) ([2]; relative to Compound 39A) [fold] | Structure (SMILES) |
| --- | --- | --- | --- | --- | --- | --- | --- |
| < 10 | 6.8 | > 700 | < 1000 | 96 | > 1950 |  | C[C@@H]1CCN(c2nnn[nH]2)C[C@H](NC(=O)N(C)c2ccc(Cl)cc2)C1 (single isomer, unassigned) [4A*] |
| < 10 | 9.1 |  | < 1000 | 200 |  |  | C[C@@H]1CCN(c2nnn[nH]2)C[C@H](NC(=O)N(C)c2ccc(OC(F)(F)F)cc2)C1 (single isomer, unassigned) [10A*] |
| < 10 | 4.2 |  | < 1000 | 140 |  | 5.9 | C[C@@H]1CCN(c2nnn[nH]2)C[C@H](NC(=O)N(C)c2ccc(OC(F)F)cc2)C1 (single isomer, unassigned) [11A*] |
